Where two headings read alike, the source gives them in different places.
Assays:
[1] = system: TS induced inflammation (cells recovered in the BAL); assay: Tobacco smoke (TS) induced inflammation, BAL cell counts 24 h after 11 daily exposures; assay type: in vivo, A/J mice; settings: for Inhibition, Eosinophils (BAL) / Inhibition, Epithelial Cells (BAL) / Inhibition, Lymphocytes (BAL) / Inhibition, Macrophages (BAL) / Inhibition, Neutrophils (BAL) / Inhibition, Total Cells (BAL): 11 daily TS exposures
From the text: Female inbred AJ mice (body weights on initial day of use: 17.2-27.4 g) were obtained from Harlan, full barrier bred and certified free from specified micro-organisms on receipt. The mice were housed, up to 5 per cage, in individually ventilated, polycarbonate solid bottomed cages (IVC) with grade 8 aspen chip bedding. Environment (airflow, temperature and humidity) within the cages was controlled by the IVC system (Techniplast). Food (RM 1, Special Diet Services) and water were provided ad libitum. Individual animals were identified by unique coloured “pentel” markings on their tails, weighed and randomly assigned to treatment groups.
The required quantity of compound was placed into a mortar. Half the required volume CMC was slowly added to form a fine paste and then this was carefully added back to a container. The residual volume of CMC required to achieve the required dose is used to wash out the mortar and the washings added back to the container. For the combination dose, each compound was formulated at double the final required concentration and an equal volume of each compound added together. […]
In this exposure protocol, mice were exposed in groups of 5 in individual clear polycarbonate chambers (27 cm×16 cm×12 cm). The TS from the cigarettes was allowed to enter the exposure chambers at a flow rate of 100 ml/min. In order to minimise any potential problems caused by repeated exposure to a high level of TS (6 cigarettes), the exposure of the mice to TS was increased gradually over the exposure period to a maximum of 6 cigarettes. The exposure schedule used in this study was as follows:
(§1) The trachea was cannulated using a Portex nylon intravenous cannula (pink luer fitting) shortened to approximately 8 mm. Phosphate buffered saline (PBS) containing heparin (10 units/ml) was used as the lavage fluid. A volume of 0.4 ml was gently instilled and withdrawn 3 times using a 1 ml syringe and then placed in an Eppendorf tube and kept on ice prior to subsequent determinations.
(§2) Lavage fluid was separated from cells by centrifugation and the supernatant decanted and frozen for subsequent analysis. The cell pellet was re-suspended in a known volume of PBS and total cell numbers calculated by counting a stained (Turks stain) aliquot under a microscope using a haemocytometer.
(§3) The residual cell pellet was diluted to approximately 10^5 cells per ml. A volume of 500 μl was placed in the funnel of a cytospin slide and centrifuged for 8 min at 800 rpm. The slide was air dried and stained using ‘Kwik-Diff’ solutions (Shandon) as per the proprietary instructions. When dried and cover-slipped, differential cells were counted using light microscopy. Up to 400 cells were counted by un biased operator using light microscopy. Cells were differentiated using standard morphometric techniques.
In addition, animals receiving steroid or the steroid combination were dosed with steroid 20 h prior to the first TS exposure. The control group of mice (shams) received vehicle on days 1 to 11 and were exposed to air daily for a maximum of 50 minutes per day. BAL was performed on day 12, 24 h following the eleventh and final TS exposure.
Since tests for normality were positive the data was subjected to a one way analysis of variance test (ANOVA), followed by a Bonferroni correction for multiple comparisons in order to test for significance between treatment groups. A “p” value of <0.05 was considered to be statistically significant. Percentage inhibitions were automatically calculated within the Excel spreadsheets for the cell data using the formula below: […]
Animals were sacrificed 24 h post the final exposure to TS/air. A BAL was performed and the total number of cells recovered counted. Data are presented as individual points and the mean values shown. Data are from 9-10 animals per group. Statistical analysis was by ANOVA. A “p” value of <0.05 was considered statistically significant. ns=not statistically significant.

[2] = system: LPS induced increases in BAL cells; assay: LPS challenge induced inflammation, BAL cell counts 24 h post challenge; assay type: in vivo, A/J mice
Procedure: Previous studies have shown that peak BAL neutrophilia is achieved 24 h post intranasal challenge with LPS at 0.3 μg. In the studies reported here this dose of LPS and this time point were employed. Control animals received phosphate buffered saline (PBS) intranasally.
Approximately 3 min prior to intra-nasal challenge anaesthesia was induced by isofluorane inhalation. Vehicle (PBS) or LPS was instilled at 50 μl per mouse. The LPS concentration was 6 μg/ml (0.3 μg per mouse). Animals were allowed to recover in a heated box at 37° C. and then returned to the home cage.
as §1, §2, §3
Animals were sacrificed 24 h post the LPS challenge. A BAL was performed and the total number of cells recovered counted. Data are presented as individual points and the mean values shown. Data are from 9-10 animals per group. Statistical analysis was by ANOVA. […]

[3] = system: adenosine receptors (A1 and A2 receptors); settings: at therapeutic concentrations; cited from earlier work
[4] = Pharmacokinetic evaluation of plasma levels of theophylline after oral dosing; assay type: in vivo, A/J mice; settings: for concentration at 15 min / concentration at 30 min / concentration at 60 min / concentration at 240 min: A/J, mouse, plasma; for concentration at 15 min: 15 minutes post dosing; for concentration at 60 min: 60 minutes post dosing; for concentration at 240 min: 240 minutes post dosing
Procedure: The collected blood was mixed and decanted into eppendorf tubes before centrifugation in a microftige. Plasma was collected and stored at −80° C. prior to analysis by an HPLC/MS/MS method. The equipment used in the measurement of plasma levels were a Micromann Quatro Micro Mass Spectrometer (Micromass UK Limited) and a Waters 2795 Alliance HT liquid chromatograph (Waters USA).
Samples were prepared for analysis by adding 200 μl of acetonitrile (containing 0.25 mg/l dextrorphan as an internal standard) to 50 μl of each thawed sample and standard and mixed vigorously. Each sample and standard was then centrifuged at 1000 g for 2 minutes and the supernatant removed for LC-MS/MS analysis.
Analysis of theophylline and dextrorphan was carried out using reverse phase HPLC with tandem mass spectrometric detection (LC-MS/MS). Positive ions for parent compound and a specific fragment product were monitored in a Multiple Reaction Monitoring mode using a Micromass Quatro Micro Mass Spectrometer with Micromass MassLynx software version 4.0. A 25 μl aliquot of each sample and standard was injected onto the liquid chromatography system.

[5] = 250 or 375 mg theophylline with 400 μg budesonide twice daily, asthma patients; cited from earlier work
[6] = system: phosphodiesterases; settings: cited from earlier work
[7] = cited from earlier work
[8] = dexamethasone 0.3 mg/kg p.o. twice daily, BAL 24 h post
[9] = dexamethasone 0.3 mg/kg p.o. at -20, -1 and 6 h relative to LPS (0.3 μg i.n.), BAL 24 h post challenge
[10] = theophylline 3 mg/kg p.o. twice daily, BAL 24 h post

With `C[C@@H]1C[C@H]2[C@@H]3CCC4=CC(=O)C=C[C@]4(C)[C@@]3(F)[C@@H](O)C[C@]2(C)[C@@]1(O)C(=O)CO` [Dexamethasone, dexamethasone] the “Inhibition, Eosinophils (BAL)” value [1, 8] was −94%, the “Inhibition, Epithelial Cells (BAL)” value [1, 8] was −20% and the “Inhibition, Lymphocytes (BAL)” value [1, 8] was −7%. The “Inhibition, Macrophages (BAL)” value [1, 8] was −14%, the “Inhibition, Neutrophils (BAL)” value [1, 8] was −46% and the “Inhibition, Total Cells (BAL)” value [1, 8] was −16%. The “Reduction of neutrophils in BAL” value [2, 9] was 71% and the “Reduction of total cells in BAL” value [2, 9] was 68%.

For `Cn1c(=O)c2[nH]cnc2n(C)c1=O` [Theophylline, 3,7-dihydro-1,3-dimethyl-1H-purine-2,6-dione], the “Inhibitory effect on any of the specific cell types (BAL)” value ([1]; theophylline 3 mg/kg alone p.o., 1 h prior to and 6 h post TS, 11 days) was “No statistically significant inhibitory effect”, the “Inhibition, Total Cells (BAL)” value ([1]; theophylline 3 mg/kg p.o. twice daily (-1 h and +6 h), BAL 24 h post final exposure) was −11% and the “Inhibition, Eosinophils (BAL)” value [1, 10] was −56%. For the same compound, the “Inhibition, Epithelial Cells (BAL)” value [1, 10] was −18%, the “Inhibition, Lymphocytes (BAL)” value [1, 10] was 1% and the “Inhibition, Macrophages (BAL)” value [1, 10] was −4%. The “Inhibition, Neutrophils (BAL)” value [1, 10] was −10%, the “Anti-inflammatory activity in the COPD (TS) model” value ([1]; theophylline given alone) was “failed to demonstrate any significant anti-inflammatory activity” and the “Inhibition of adenosine receptors (antagonism of A1 and A2 receptors)” value [3] was “potent inhibitor”. It also gave a concentration at 15 min ([4]; oral dose 0.3 mg/kg, mean ± SD) of 130 ± 6 ng/mL, a concentration at 30 min ([4]; oral dose 0.3 mg/kg, 30 minutes post dosing, mean ± SD) of 140 ± 25 ng/mL and a concentration at 60 min ([4]; oral dose 0.3 mg/kg, mean ± SD) of 256 ± 198 ng/mL. It also gave a concentration at 240 min ([4]; oral dose 0.3 mg/kg, mean ± SD) of 65 ± 11 ng/mL, a concentration at 15 min ([4]; oral dose 1 mg/kg, mean ± SD) of 740 ± 760 ng/mL and a concentration at 30 min ([4]; oral dose 1 mg/kg, 30 minutes post dosing, mean ± SD) of 660 ± 122 ng/mL. The concentration at 60 min ([4]; oral dose 1 mg/kg, mean ± SD) was 410 ± 84 ng/mL, the concentration at 240 min ([4]; oral dose 1 mg/kg, mean ± SD) was 60 ± 15 ng/mL and the concentration at 15 min ([4]; oral dose 3 mg/kg, mean ± SD) was 1860 ± 290 ng/mL. It also gave a concentration at 30 min ([4]; oral dose 3 mg/kg, 30 minutes post dosing, mean ± SD) of 3660 ± 2640 ng/mL, a concentration at 60 min ([4]; oral dose 3 mg/kg, mean ± SD) of 1470 ± 110 ng/mL and a concentration at 240 min ([4]; oral dose 3 mg/kg, mean ± SD) of 90 ± 100 ng/mL. For the same compound, the “Plasma concentrations at all time points” value ([4]; oral dose 0.3 mg/kg) was “less than 1 mg/l”, the “Time of peak levels” value ([4]; oral dose 3 mg/kg) was 30 min and the “Plasma level of the one animal above 5 mg/l” value ([4]; oral dose 3 mg/kg, 30 minute time point, single animal) was 6.7 mg/A. The “Plasma Levels” value ([4]; oral dose 3 mg/kg, 30 minutes post dosing, mean ± SD, 3 mg/kg) was 3660 ± 2640 ng/mL, the “Plasma concentration achieved (median value)” value [5] was 8700 ng/mL and the Inhibition of phosphodiesterases [6] was “weak and nonselective inhibitor”. For the same compound, the “Activity on LPS induced pulmonary inflammation” value ([2]; theophylline at the dose level tested (0.3 mg/kg p.o.)) was “without activity”, the Bioavailability ([7]; absorption from the gastrointestinal tract) was 90-100% and the Mean plasma half-life ([7]; adults) was “about 8 hours”. For the same compound, the “Plasma levels regarded as being necessary for anti-inflammatory efficacy” value ([7]; in vivo) was 10000 to 20000 ng/mL, the Plasma half-life ([7]; premature neonates) was “approximately 30 hours” and the “Time to peak levels following ingestion” value ([7]; slowed by the presence of food) was 1 to 2 h. The Plasma half-life ([7]; up to the age of 20) was “approximately 3.5 hours”.

— patent US20080318912A1, “Medicaments for Treating Chronic Respiratory Disease” (priority 2004, published 2008)
